# Results reported in ChEMBL document CHEMBL1147043, “Comparative metabolism of radiolabeled muraglitazar in animals and humans by quantitative and qualitative metabolite profiling” (Drug Metab Dispos, 2007).
# Key:
# [1] = Half life in Sprague-Dawley rat at 10 mg/kg, po after 24 hrs; type: ADME, organism-based; design: dose 10 mg/kg, route oral; conditions: in vivo
# [2] = test system: Plasma; test: Biodistribution in orally dosed cynomolgus monkey plasma assessed as muraglitazar 12-carboxylic acid level after 12 hrs by LC/MS analysis; type: ADME, organism-based, Macaca fascicularis; conditions: in vivo, po
# [3] = Metabolic stability in cynomolgus monkey hepatocytes assessed as 9-hydroxy muraglitazar level by LC/MS analysis relative to control; type: ADME, cell-based, Macaca fascicularis, Hepatocyte
# [4] = Biodistribution in orally dosed cynomolgus monkey urine assessed as O-demethyl muraglitazar level by LC/MS analysis; type: ADME, organism-based, Macaca fascicularis; conditions: in vivo, po
# [5] = Biodistribution in orally dosed human feces assessed as O-dealkyl-O-demethyl muraglitazar level by LC/MS analysis; type: ADME, organism-based; conditions: in vivo, po
# [6] = Drug concentration in bile duct-cannulated CD1 mouse bile assessed as recovery of radioactive dose at 1 mg/kg, po after 24 hrs; type: ADME, organism-based; design: dose 1 mg/kg, route oral; conditions: in vivo
# [7] = Metabolic stability in cynomolgus monkey hepatocytes assessed as di-oxygenated muraglitazar level by LC/MS analysis relative to control; type: ADME, cell-based, Macaca fascicularis, Hepatocyte
# [8] = Biodistribution in orally dosed human urine assessed as 17-hydroxy muraglitazar level by LC/MS analysis; type: ADME, organism-based; conditions: in vivo, po
# [9] = test system: Plasma; test: Biodistribution in orally dosed cynomolgus monkey plasma assessed as O-demethyl muraglitazar level after 4 hrs by LC/MS analysis; type: ADME, organism-based, Macaca fascicularis; conditions: in vivo, po
# [10] = Biodistribution in orally dosed Beagle dog feces assessed as 8-hydroxy muraglitazar level by LC/MS analysis; type: ADME, organism-based, Canis lupus familiaris; conditions: in vivo, po
# [11] = test system: Hepatocyte; test: Metabolic stability in human hepatocytes assessed as muraglitazar 12-carboxylic acid level by LC/MS analysis relative to control; type: ADME, cell-based
# [12] = test system: Plasma; test: Biodistribution in orally dosed human plasma assessed as 17-dihydroxy muraglitazar level after 4 hrs by LC/MS analysis; type: ADME, organism-based; conditions: in vivo, po
# [13] = test system: Cynomolgus monkey; test: Cmax in cynomolgus monkey at 1.9 mg/kg, po after 24 hrs; type: ADME, organism-based, Macaca fascicularis; design: dose 1.9 mg/kg, route oral; conditions: in vivo
# [14] = Biodistribution in orally dosed cynomolgus monkey urine assessed as 9-hydroxy muraglitazar level by LC/MS analysis; type: ADME, organism-based, Macaca fascicularis; conditions: in vivo, po
# [15] = test system: Rattus norvegicus; test: Biodistribution in orally dosed Sprague-Dawley rat feces assessed as 17-hydroxy muraglitazar level by LC/MS analysis; type: ADME, organism-based; conditions: in vivo, po, pooled result: one value given for 6 cell lines, strains, targets or settings
# [16] = Biodistribution in orally dosed cynomolgus monkey urine assessed as 9-hydroxy-O-demethyl muraglitazar level by LC/MS analysis; type: ADME, organism-based, Macaca fascicularis; conditions: in vivo, po
# [17] = test system: Plasma; test: Biodistribution in orally dosed cynomolgus monkey plasma assessed as 12,17-dihydroxy muraglitazar level after 1 hr by LC/MS analysis; type: ADME, organism-based, Macaca fascicularis; conditions: in vivo, po
# [18] = Drug concentration in cynomolgus monkey feces assessed as recovery of radioactive dose at 2 mg/kg, po after 168 hrs; type: ADME, organism-based, Macaca fascicularis; design: dose 2 mg/kg, route oral; conditions: in vivo
# [19] = Biodistribution in orally dosed human feces assessed as O-demethyl muraglitazar level by LC/MS analysis; type: ADME, organism-based; conditions: in vivo, po
# [20] = test system: Rattus norvegicus; test: Biodistribution in orally dosed Sprague-Dawley rat urine assessed as 8-hydroxy-O-demethyl muraglitazar level by LC/MS analysis; type: ADME, organism-based; conditions: in vivo, po
# [21] = Metabolic stability in cynomolgus monkey hepatocytes assessed as O-demethyl muraglitazar glucuronide level by LC/MS analysis relative to control; type: ADME, cell-based, Macaca fascicularis, Hepatocyte
# [22] = test system: Plasma; test: Biodistribution in orally dosed human plasma assessed as 8-hydroxy-O-demethyl muraglitazar level after 4 hrs by LC/MS analysis; type: ADME, organism-based; conditions: in vivo, po
# [23] = test system: Plasma; test: Biodistribution in orally dosed cynomolgus monkey plasma assessed as O-demethyl muraglitazar level after 1 hr by LC/MS analysis; type: ADME, organism-based, Macaca fascicularis; conditions: in vivo, po
# [24] = Biodistribution in orally dosed Beagle dog urine assessed as O-dealkyl muraglitazar level by LC/MS analysis; type: ADME, organism-based, Canis lupus familiaris; conditions: in vivo, po
# [25] = Biodistribution in orally dosed cynomolgus monkey feces assessed as 8,12-dihydroxy muraglitazar level by LC/MS analysis; type: ADME, organism-based, Macaca fascicularis; conditions: in vivo, po
# [26] = Biodistribution in orally dosed cynomolgus monkey urine assessed as 12-hydroxy muraglitazar level by LC/MS analysis; type: ADME, organism-based, Macaca fascicularis; conditions: in vivo, po
# [27] = test system: Hepatocyte; test: Metabolic stability in Sprague-Dawley rat hepatocytes assessed as muraglitazar 12-carboxylic acid level by LC/MS analysis relative to control; type: ADME, cell-based
# [28] = Biodistribution in orally dosed human feces assessed as muraglitazar glucuronide level by LC/MS analysis; type: ADME, organism-based; conditions: in vivo, po
# [29] = Drug concentration in bile duct-cannulated CD1 mouse feces assessed as recovery of radioactive dose at 40 mg/kg, po after 24 hrs; type: ADME, organism-based; design: dose 40 mg/kg, route oral; conditions: in vivo
# [30] = Metabolic stability in CD1 mouse hepatocytes assessed as 8-hydroxy-O-demethyl muraglitazar level by LC/MS analysis relative to control; type: ADME, cell-based, Hepatocyte
# [31] = test system: Plasma; test: Biodistribution in orally dosed cynomolgus monkey plasma assessed as 17-hydroxy-O-demethyl muraglitazar level after 4 hrs by LC/MS analysis; type: ADME, organism-based, Macaca fascicularis; conditions: in vivo, po
# [32] = test system: Plasma; test: Biodistribution in orally dosed Sprague-Dawley rat plasma assessed as O-demethyl muraglitazar level after 1 hr by LC/MS analysis; type: ADME, organism-based; conditions: in vivo, po
# [33] = Fecal excretion of compound in orally dosed cynomolgus monkey within 48 hrs; type: ADME, organism-based, Macaca fascicularis; conditions: faeces, po, read-out: Activity
# [34] = Biodistribution in orally dosed cynomolgus monkey feces assessed as 12-hydroxy muraglitazar level by LC/MS analysis; type: ADME, organism-based, Macaca fascicularis; conditions: in vivo, po
# [35] = Metabolic stability in cynomolgus monkey hepatocytes assessed as 12,17-dihydroxy muraglitazar level by LC/MS analysis relative to control; type: ADME, cell-based, Macaca fascicularis, Hepatocyte
# [36] = test system: Hepatocyte; test: Metabolic stability in human hepatocytes assessed as 8-hydroxy muraglitazar level by LC/MS analysis relative to control; type: ADME, cell-based
# [37] = test system: Hepatocyte; test: Metabolic stability in human hepatocytes assessed as O-dealkyl-O-demethyl muraglitazar level by LC/MS analysis relative to control; type: ADME, cell-based
# [38] = test system: Hepatocyte; test: Metabolic stability in Sprague-Dawley rat hepatocytes assessed as hydroxyl-O-demethyl muraglitazar glucuronide level by LC/MS analysis relative to control; type: ADME, cell-based
# [39] = Biodistribution in orally dosed human urine assessed as O-dealkyl muraglitazar level by LC/MS analysis; type: ADME, organism-based; conditions: in vivo, po
# [40] = Metabolic stability in CD1 mouse hepatocytes assessed as O-demethyl muraglitazar glucuronide level by LC/MS analysis relative to control; type: ADME, cell-based, Hepatocyte
# [41] = Drug concentration in human bile assessed as recovery of radioactive dose at 20 mg, po after 3 to 8 hrs; type: ADME, organism-based; conditions: in vivo
# [42] = Tmax in Sprague-Dawley rat at 10 mg/kg, po after 24 hrs; type: ADME, organism-based; design: dose 10 mg/kg, route oral; conditions: in vivo
# [43] = Half life in human at 10 mg, po after 72 hrs; type: ADME, organism-based; conditions: in vivo
# [44] = Biodistribution in orally dosed cynomolgus monkey urine assessed as O-demethyl muraglitazar glucuronide level by LC/MS analysis; type: ADME, organism-based, Macaca fascicularis; conditions: in vivo, po
# [45] = test system: Plasma; test: Biodistribution in orally dosed cynomolgus monkey plasma assessed as […] muraglitazar level after 12 hrs by LC/MS analysis; type: ADME, organism-based, Macaca fascicularis; conditions: in vivo, po
# [46] = Drug concentration in bile duct-cannulated cynomolgus monkey bile at 5 mg/kg, po after 48 hrs; type: ADME, organism-based, Macaca fascicularis; design: dose 5 mg/kg, route oral; conditions: in vivo
# [47] = test system: Plasma; test: Biodistribution in orally dosed Beagle dog plasma assessed as O-Dealkyl muraglitazar level after 4 hrs by LC/MS analysis; type: ADME, organism-based, Canis lupus familiaris; conditions: in vivo, po
# [48] = test system: Rattus norvegicus; test: Biodistribution in orally dosed Sprague-Dawley rat urine assessed as O-demethyl muraglitazar level by LC/MS analysis; type: ADME, organism-based; conditions: in vivo, po
# [49] = Bile excretion of compound in bile duct-cannulated orally dosed cynomolgus monkey within 48 hrs; type: ADME, organism-based, Macaca fascicularis; conditions: po, read-out: Activity
# [50] = Biodistribution in orally dosed Beagle dog feces assessed as 12-hydroxy-O-demethyl muraglitazar level by LC/MS analysis; type: ADME, organism-based, Canis lupus familiaris; conditions: in vivo, po
# [51] = test system: Rattus norvegicus; test: Biodistribution in orally dosed Sprague-Dawley rat urine assessed as 9-hydroxy muraglitazar level by LC/MS analysis; type: ADME, organism-based; conditions: in vivo, po
# [52] = Biodistribution in orally dosed Beagle dog feces assessed as 12-hydroxy muraglitazar level by LC/MS analysis; type: ADME, organism-based, Canis lupus familiaris; conditions: in vivo, po
# [53] = Biodistribution in orally dosed human feces assessed as imide derivative of muraglitazar level by LC/MS analysis; type: ADME, organism-based; conditions: in vivo, po
smiles,measurement,setting,value
COc1ccc(OC(=O)N(CC(=O)O)Cc2ccc(OCCc3nc(-c4ccccc4)oc3C)cc2)cc1 [MURAGLITAZAR],half-life,[1],3.8 h
same,Drug uptake,[2],0.5%
same,Drug uptake,[3],0.6%
same,Drug uptake,[4],0.08%
same,Drug uptake,[5],0.4%
same,Drug uptake,[6],75%
same,Drug uptake,[7],1.3%
same,Drug uptake,[8],0.07%
same,Drug uptake,[9],0.3%
same,Drug uptake,[10],0.18%
same,Drug uptake,[11],0.9%
same,Drug uptake,[12],0.3%
same,Cmax,[13],7.1 ugequiv/ml
same,Drug uptake,[14],0.03%
same,Drug uptake,[15],0.88%
same,Drug uptake,[16],0.18%
same,Drug uptake,[17],1%
same,Drug uptake,[18],80.4%
same,Drug uptake,[19],3.33%
same,Drug uptake,[20],0.05%
same,Drug uptake,[21],< 0.2%
same,Drug uptake,[22],< 0.05%
same,Drug uptake,[23],0.1%
same,Drug uptake,[24],0.44%
same,Drug uptake,[25],0.16%
same,Drug uptake,[26],0.04%
same,Drug uptake,[27],< 0.2%
same,Drug uptake,[28],0.06%
same,Drug uptake,[29],12%
same,Drug uptake,[30],4.8%
same,Drug uptake,[31],< 0.05%
same,Drug uptake,[32],2.3%
same,dose excreted at 48 h,[33],30%
same,Drug uptake,[34],7.24%
same,Drug uptake,[35],< 0.2%
same,Drug uptake,[36],< 0.2%
same,Drug uptake,[37],< 0.2%
same,Drug uptake,[38],< 0.2%
same,Drug uptake,[39],0.06%
same,Drug uptake,[40],< 0.2%
same,Drug uptake,[41],39.9%
same,Tmax,[42],0.5 h
same,half-life,[43],19.8 h
same,Drug uptake,[44],< 0.01%
same,Drug uptake,[45],1%
same,Drug uptake,[46],0.007 mgequiv/ml
same,Drug uptake,[47],3%
same,Drug uptake,[48],0.12%
same,dose excreted at 48 h,[49],36%
same,Drug uptake,[50],0.38%
same,Drug uptake,[51],< 0.01%
same,Drug uptake,[52],1.1%
same,Drug uptake,[53],2.46%
